Patent publication US9555058B2, “Antigen presenting cancer vaccine” (CALIFORNIA STEM CELL, INC., priority 2011, dated 2017)

How the values were obtained:
Format in all cases: cell-based, human
[1] = test system: melanoma cell lines; assay: Apoptosis by flow cytometry using 7-AAD and annexin-V; settings: 1000 IU/mL IFN-gamma 72 hours with pan caspase inhibitor
Method: The methodology of the study was as follows. Autologous and model melanoma tumor cell lines were incubated with 1000 IU/mL of IFN-gamma for 72 hours prior to assaying for autophagy, apoptosis and MHC class II expression. Autophagy was detected by immunobloting with antibodies against LC3 II and by flow cytometry with Enzo's CytoID® Autophagy Detection Kit. Apoptosis and MHC class II induction were assayed by flow cytometry using 7-AAD and annexin-V staining and antibodies against MHC class II, respectively.
Analysis of tumor cell death and changes in major histocompatibility class II expression in response to IFN-gamma were conducted by use of antibodies directed against MHC class II, annexin-V and 7-amino-actinomycin D (7-AAD) and acquired on a Beckton-Dickenson FACS Calibur® flow cytometer.
What was investigated was the induction of autophagy, apoptosis and MHC class II molecules after IFN-gamma treatment of melanoma tumor cells in vitro. Autologous and model melanoma tumor cell lines were incubated with 1000 IU/mL of IFN-gamma for 72 hours prior to assaying for autophagy, apoptosis and […] class II expression. Autophagy was detected by immunobloting with antibodies against LC3 II and by flow cytometry with Enzo's CytoID Autophagy Detection Kit. […]

[2] = test system: autologous melanoma tumor cells; assay: Trypan-blue dye exclusion viability after IFN-gamma; settings: IFN-gamma 72 hours in complete medium; N=47; p=0.014 vs 89.1±6.8% not treated
Method: Pure tumor cells were generated according to Cornforth, et al. (Cornforth, et al. (2011) Cancer Immunol. Immunother. 60:123-131; Dillman, et al. (1993) J. Immunother. Emphasis Tumor Immunol. 14:65-69; Dillman, et al. (2000) Cancer Biother. Radiopharm. 15:161-168). The tumor cells were then incubated with 1,000 U/mL of interferon-gamma (InterMune, Brisbane, Calif.) for 72 h, irradiated with 100Gy from a cesium source and cryopreserved (Selvan, et al. (2007) Int. J. Cancer 122:1374-1383; Selvan, et al. (2010) Melanoma Res. 20:280-292). The IFN-gamma treated and irradiated tumor cells were recovered from cryopreservation, washed with phosphate buffered saline (PBS), and then added to the cultivated dendritic cells (DCs) and then incubated for about 24 h. The antigen-loaded DCs were harvested by gentle scraping with a rubber policeman and cryopreserved. Aliquots of IFN-gamma treated or untreated tumor cells and loaded DCs were obtained for flow cytometry evaluation and trypan-blue exclusion assay. […]

[3] = test system: MHC class II; assay: Flow cytometry of MHC class II induction by IFN-gamma in autologous tumor cells; settings: 1000 IU/mL IFN-gamma 72 hours
Method: (§1) FIGS. 2A-D show characterization of IFN-gamma treated autologous tumor cells used for loading dendritic cells. Autologous melanoma tumor cells were treated with or without 1000 IU/mL IFN-gamma for 72 hours in 15% FBS/ECS in RPMI, harvested and irradiated with 100Gy and cryopreserved. Cells were then thawed in AIMV and a sample taken for flow cytometry and for preparation of cell lysates for immunoblotting prior to antigen loading of DCs. An example of four separate autologous melanoma cell lines is shown (FIG. 2A, FIG. 2B and FIG. 2C). Induction major histocompatibility complexes by IFN-gamma treatment of autologous tumor cells (FIG. 2D). Tumor cells were harvested after being treated with or without 1000 IU/mL IFN-gamma for 72 hours and then assayed for MHC class I and class II. Control isotype antibodies were used to identify positive populations. Dark data points indicate median mean fluorescent plus/minus 95% confidence interval. N=65. After irradiation, melanoma cells are checked by assays to ensure that there is not any mitosis.
Phenotypic characterization of the dendritic cell populations were performed using monoclonal antibodies against surface markers obtained from BD Pharmingen San Diego, Calif.: anti-MHC class II conjugated to PerCp, anti CD11c conjugated to APC, anti-CD80, anti-CD83, anti-CD86 conjugated to PE. Isotype controls were used to determine percent positive cells. […]

[4] = test system: autologous melanoma cell lines; assay: Immunoblotting of lysates of melanoma cells incubated with or without IFN-gamma; settings: 1000 IU/mL IFN-gamma 72 hours; four autologous melanoma cell lines
Method: as §1
Cytoplasmic cell lysates were prepared with Mammalian Protein Extraction Reagent (Thermo Scientific, Rockford, Ill.) plus protease inhibitor cocktail (Roche, Indianapolis, Ind.) at 10,000 cells/uL on ice. Approximately 25 uLs/lane of cell lysates were separated on 12.5% tris-glycine gels, transferred to PVDF membrane and probed with antibodies against the following: calreticulin (MBL, Woburn, Mass.), Hsp-60, Hsp-70, Hsp-90 (R&D Systems, Minneapolis, Minn.), HMBG-1 (Cell Signaling, Danvers, Mass.), ICAM-1 (Santa Cruz Biotech, Santa Cruz, Calif.), Mel-4, Mart-1 (Signet, Emeryville, Calif.), tyrosinase (Upstate, Lake Placid, N.Y.) and GADPH (Calbiochem, Darmstadt, Germany).
Lysates from cells that were incubated in the presence or absence of IFN-gamma were subjected to immunoblotting for a variety of molecules that may be important mediators of immunity (FIG. 1B). […]

[5] = test system: melanoma cell lines; assay: Immunohistochemistry of a panel of melanoma associated antigens with or without IFN-gamma; settings: 1000 IU/mL IFN-gamma 72 hours, N=27 samples
Method: Expression of a panel antigens by melanoma lines were determined using immunocytochemical procedure. Cells were cultured in 8-chamber culture slides (Thermo Fisher, Rochester, N.Y.) in the presence or absence of 1000 IU/mL IFN-gamma. After 72 hours, the cells were washed 3 times with 1× Phosphate Buffered Saline (PBS) and fixed in cold acetone. After blocking endogenous peroxidase, cells were incubated with appropriate primary antibodies against the antigens listed. Immunohistochemistry was performed using biotinylated anitmouse or rabbit immunoglobulins, Super Sensitive enzyme-conjugated streptavidin labeling and horse radish peroxidase chromogen, and substrate kits (Biogenex, San Ramon, Calif.). The reactivity of the following anti-human polyclonal or monoclonal antibodies was investigated with isotype matched control antibody: S-100 and HMB-45 (Biogenex, San Ramon, Calif.), Mel-2, Mel-5, Mart-1 (Signet, Dedham, Mass.), Tyrosinase and Mage-1 (Thermo Scientific, Fremont, Calif.), Melan-A, HLA-class I and HLA-class II (Dako, Denmark).
Lysates from cells that were incubated in the presence or absence of IFN-gamma were subjected to immunoblotting for a variety of molecules that may be important mediators of immunity (FIG. 1B). In the setting of melanoma cells treated with IFN-gamma, heat shock proteins appear to be differentially regulated but remain largely present in the cell preparations, especially in the case of hsp-70.

[6] = test system: SK-5-Mel cells; assay: Autophagy by flow cytometry (Enzo CytoID Autophagy Detection), IFN-gamma with or without z-VAD; settings: 1000 IU/mL IFN-gamma 72 hours; 20 uM z-VAD where present; vs 5% FBS/RPMI
Method: FIGS. 6A and 6B reveal apoptosis and autophagy induced in response to interferon-gamma. SK-5-Mel cells were incubated with 1000 IU/mL of IFN-gamma for 72 hours after which non-adherent and adherent populations were collected and assayed for apoptosis and autophagy by flow cytometry using […] and Annexin-V (FIG. 6A). Enzo Cyto-ID Autophagy Detection Dye was used to measure autophagy by flow cytometry by measuring the mean intensity peak shift of dye provided by the manufacturer (FIG. 6B). Fold changes in the peak shift in comparison to 5% FBS/RPMI are shown in FIG. 6C with serum-free as positive control for the induction of autophagy.
SK-5-Mel cells were treated with 1000 IU/mL of IFN-gamma in the presence of 20 uM of the pan-caspase inhibitor z-VAD or its control compound, z-FA for 72 hours. The cells were harvested and assayed for autophagy by flow cytometry as in FIG. 6C.
The methodology of the study was as follows. […] Autophagy was detected by immunobloting with antibodies against LC3 II and by flow cytometry with Enzo's CytoID® Autophagy Detection Kit. […]
What was investigated was the induction of autophagy, apoptosis and MHC class II molecules after IFN-gamma treatment of melanoma tumor cells in vitro. […] Autophagy was detected by immunobloting with antibodies against LC3 II and by flow cytometry with Enzo's CytoID Autophagy Detection Kit. […]

| Substance | apoptosis in IFN-gamma treated cells [1] | viability (trypan-blue dye exclusion) [2] [%] | cases with MHC class II induction greater than two fold [3] [%] | ICAM-1 expression (immunoblot) [4] | calreticulin and HMGB-1 expression (immunoblot) [4] | common melanoma antigens (mel-4, Mart-1 and tyrosinase) expression (immunoblot) [4] | Change after IFN-gamma treatment: Down ([5]; antigen MAGE-1) [%] | Change after IFN-gamma treatment: None ([5]; antigen Mel-2) [%] | Change after IFN-gamma treatment: Down ([5]; antigen Tyrosinase) [%] | Change after IFN-gamma treatment: None ([5]; antigen Tyrosinase) [%] | autophagy, fold change of peak shift [6] [fold change] |
| --- | --- | --- | --- | --- | --- | --- | --- | --- | --- | --- | --- |
| carbobenzoxy-valyl-alanyl-aspartyl-[O-methyl]-fluoromethylketone [Z-VAD] | prevents apoptosis |  |  |  |  |  |  |  |  |  |  |
| interferon-gamma [IFN-gamma, interferon-gamma (InterMune, Brisbane, Calif.), type II interferon, used at 1000 IU/mL for 72 hours on melanoma cells] |  | 84.9±9.3 | 70 | significantly up-regulated | up-regulated in some cases | down regulated | 61.5 | 46.2 | 60.0 | 40.0 | 2.75±0.15 |
